Test results published in patent US20080193938A1, “Materials And Methods Relating To Breast Cancer Classification” (priority 2005, published 2008).

Assays:
TuM1 module = experiment: Gene set enrichment analysis of tumor module expression in tamoxifen treated MCF7 cells; format: cell-based; conditions: 10 μM tamoxifen, harvested at 48 hrs; FDR=0.05
Description: MCF-7 breast cancer cells were obtained from American Type Culture Collection center (Manassas, Va.), and cells were cultured in Dulbecco's modified Eagle medium (DMEM) (Gibco, Grand Island, N.Y.) supplemented with 10% fetal bovine serum (FBS), 100 U/mL penicillin, 100 U/mL streptomycin, and 2 mM L-glutamine. Before tamoxifen treatment, cells were washed three times in PBS and maintained in phenol red free DMEM with 5% Dextran charcoal-stripped FBS (HyClone Laboratories, Pittsburgh, Pa.) for 24 hrs. Subsequently cells were treated with 10 μM tamoxifen (Sigma) and harvested at 48 hrs. Control sister cultures were treated with an equivalent volume of the vehicle (0.1% ethanol).
GSEA was used to ask if expression of the tumor module genes might be affected by tamoxifen treatment. Four control samples and two post-treatment samples (See Materials and Methods) were used for GSEA analysis. Three modules (TuM4, 5 and 6) were filtered out due to insufficient number of genes (<10) expressed in MCF7 cell lines.
The observation that TuM1 is expressed in a subset of ER+ tumors raises the possibility that expression of this module may depend, at least in some part, on ER activity and signaling. To investigate the relationship between TuM1 expression and ER signaling, we tested the responsiveness of TuM1 to ER activity using an in vitro system. […]

MCF-7 cells = experiment: Tamoxifen induced apoptosis, Annexin-V flow cytometry in control and RLN2 silenced MCF-7 cells; format: cell-based; conditions: 1 μM tamoxifen for 48 hrs, analyzed 72 hrs after withdrawal
Description: FIG. 13B. Flow cytometric analysis of Tamoxifen sensitivity in RLN2 silenced MCF-7 cells: RLN2 silenced and control cells were treated with 1 μm Tamoxifen or equivalent quantity of vehicle for 48 hrs and subsequently, the treatment was withdrawn. After 72 hrs, Annexin-V staining positive cells were scored in Flow cytometry, which is a measure for tamoxifen induced apoptosis.
MCF-7 cells (ATCC) were maintained in DMEM growth media supplemented with 10% fetal bovine serum (FBS), 100 U/mL penicillin, 100 U/mL streptomycin, and 2 mM L-glutamine. […] RLN2 silenced and control cells were treated with 1 μM Tamoxifen or equivalent quantity of vehicle for 48 hrs and subsequently, the treatment was withdrawn by changing the culture media to DMEM with 5% DCC. After 72 hrs, cells were trypsinized and stained with Annexin-V-Fluorescein and propidium iodide as recommended by the manufacturer (Roche) and the analyzed in Flow cytometer (Beckman-Coulter). The population of annexin-V positive cells was scored as the representation of the percentages of apoptotic cells.
To functionally investigate the association of the TuM1 signature with a tumor's response to anti-hormonal treatment, the role of a representative TuM1 gene, Relaxin2 (RLN2) was assessed in a ER+ breast cancer cellular model. […]

CC/C(=C(\c1ccccc1)c1ccc(OCCN(C)C)cc1)c1ccccc1 [tamoxifen]
TuM1 expression in tam-treated MCF7 cells compared to controls (GSEA) (TuM1 module): significantly downregulated
percentage of apoptotic (annexin-V-staining positive) cells (MCF-7 cells; RLN2 silenced (siRNA) MCF-7 cells): about 23%
percentage of apoptotic (annexin-V-staining positive) cells (MCF-7 cells; control MCF-7 cells): about 73%
